In patent US20200315933A1, “USE OF CANNABIDIOL OR CANNABIS EXTRACT IN PREPARATION OF SKIN WHITENING PRODUCTS” (HANYI BIO-TECHNOLOGY COMPANY LTD., priority 2017, published 2020):

Legend:
Format in all cases: cell-based
[1] = target: T1, tyrosinase (Mus musculus, UniProt P11344); test: Determination of tyrosinase inhibition rate in B16 cells; settings: action of 72 hours, inhibition rate increased with amount
T1 construct: endogenous in cells; host or cells: B16 cells
T1 sequence (P11344 19-533): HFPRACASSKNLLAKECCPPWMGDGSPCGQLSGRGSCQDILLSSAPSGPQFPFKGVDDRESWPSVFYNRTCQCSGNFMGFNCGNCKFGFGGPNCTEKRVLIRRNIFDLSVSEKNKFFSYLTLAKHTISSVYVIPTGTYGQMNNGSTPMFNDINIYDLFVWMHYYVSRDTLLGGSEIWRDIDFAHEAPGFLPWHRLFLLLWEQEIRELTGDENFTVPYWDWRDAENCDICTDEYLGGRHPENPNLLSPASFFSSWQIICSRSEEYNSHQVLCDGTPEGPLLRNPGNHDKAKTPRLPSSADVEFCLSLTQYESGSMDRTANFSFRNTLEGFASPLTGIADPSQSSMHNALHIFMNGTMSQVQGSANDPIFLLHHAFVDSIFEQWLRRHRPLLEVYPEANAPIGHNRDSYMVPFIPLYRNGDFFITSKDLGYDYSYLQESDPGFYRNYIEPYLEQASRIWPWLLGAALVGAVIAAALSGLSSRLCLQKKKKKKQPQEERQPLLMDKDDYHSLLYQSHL
Procedure: B16 cells at a logarithmic phase were collected, trypsin was adopted for digestion, the digestion was terminated with a complete medium (DMEM high sugar medium+10% fetal calf serum), counting was performed; the cell suspension was adjusted to 10×10^4 cells/mL, and inoculated into a 96-well culture plate, each well was added with 100 μl of cell suspension, the marginal wells were filled with sterile PBS, and cultivated in an incubator at 37° C. and with 5% CO2 overnight, the medium (DMEM high sugar medium+10% fetal calf serum) was drawn out, 100 μl of the experiment sample was added into each well, and a control group (namely, the well without the sample but with only medium) was set. After action of 72 hours, 50 μl of 1% TritionX-100 solution was added for cell lysis, quickly put into an ultra-low temperature freezer at −80° C. and cryopreserved for one hour, subsequently the cryopreserved solution was thawed at room temperature, such that tyrosinase within the cells were released outside the cells, pre-warming was performed to 37° C., then 50 μl of 1% levodopa solution was added to produce a mixture, the mixture was reacted at 37° C. for 2 hours, the absorbance value in each well was determined at the wavelength of 490 nm, for every sample concentration, more than 3 subwells were set, and averaged. […]

[2] = system: human immortalized epidermal cells; test: Cytotoxicity test (MTT) of human immortalized epidermal cells; settings: samples containing cannabis seed oil
Procedure: Human immortalized epidermal cells at a logarithmic phase were collected, the concentration of the cell suspension was adjusted, the cell suspension was added to a 96-well plate at 100 μl per well, incubation was performed at 37° C. and with 5% CO2 to reach a cell density of 5000 cells/well. The solution was changed and the experimental samples at different concentration gradients were added (as the following Table 4), a culture solution containing no experiment sample was used as the control. Incubation was performed with 5% CO2 and at 37° C. for 24 hours, 20 μl of MTT solution (5 mg/ml, i.e. 0.5% MTT) was added into each well, the cultivation was continued for four hours. The drug reacted with MTT sufficiently, firstly centrifugation was performed, then the culture solution was abandoned, and rinsing was performed with PBS carefully for 2-3 times, then a culture solution containing MTT was added. The cultivation was terminated, the culture solution in the well were drawn off carefully. […] The absorbance values of each well were measured in an enzyme linked immunosorbent detector at OD value of 490 nm.
Cell survival rate=(determined well OD value−blank control OD value)/(OD value in the cell comparative group−OD value in the blank control)×100%.

[3] = system: B16 cells; test: Determination of melanin content in B16 cells; settings: positive control 33 mM
Procedure: B16 cells in good state at a logarithmic phase were collected, trypsin was adopted for digestion, the digestion was terminated with a complete medium, and counting was performed; the prepared cell suspension was adjusted to 5×10^4 cells/ml and added into a 6-well culture plate, 2 ml of cell suspension was added into each well, cultivation was performed in an incubator at 37° C. and with 5% CO2 overnight; the medium was drawn out, 2 ml of cannabis extracts with different concentrations were added into each well, after action of 48 hours, the medium was drawn out and abandoned, trypsin was adopted for digestion, and the product was collected into a centrifugal tube, centrifugation was performed to obtain a cell precipitate, the cell precipitate was washed with PBS for one time, a 1M NaOH (containing 10% DMSO) solution was added for cell lysis, and the lysed cells were put in a 80° C. water bath kettle for water bath for 30 minutes; uniform shaking and mixing were performed, and the processed cells were drawn into to a 96-well plate; and the absorbance value was determined at the wavelength of 245 nm.
Relative melanin content=(mean absorbance value in each well under every concentration−mean absorbance value in the control group)[…].

Structure (SMILES) | inhibitory effect against tyrosinase (inhibition rate) [1] | cell proliferation (eliminating the influence of the cannabis seed oil) [2] | melanin content within the B16 cells [3]
C=C(C)[C@@H]1CCC(C)=C[C@H]1c1c(O)cc(CCCCC)cc1O [CBD, Cannabidiol] | effective inhibitory effect against tyrosinase | promote cell proliferation to a certain extent | 
OC[C@H]1O[C@@H](Oc2ccc(O)cc2)[C@H](O)[C@@H](O)[C@@H]1O [arbutin, Arbutin] |  |  | 79.24%
